In patent US20260207563A1, “UREA COMPOUNDS AS ACTIVATORS OF POTASSIUM CHANNELS KV7.2/7.3 USEFUL IN THE TREATMENT OF CNS AND PNS DISORDERS” (ANGELINI PHARMA S.P.A., priority 2022, published 2026):

Columns and labels:
Type in all cases: cell-based
[1] = target: T1, heteromeric KV7.3/KV7.5 channel (KCNQ3, KCNQ5) (Homo sapiens, UniProt O43525+Q9NR82); test: Automated patch-clamp counter-screening against KV7.3/KV7.5 channel; settings: HEK293 cells expressing Kv7.3/KV7.5; class by maximal shift in the Vhalf at 30 μM
T1 construct: host or cells: HEK293
Outline: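 HEK293 cells with constitutive Kv7.3 and tetracycline-inducible Kv7.5 were recorded by automated patch clamp. Ten concentrations (1:3 series from 30 μM, quadruplicate) were tested; Vhalf shifts were fitted with a 4-parameter logistic to give EC50 and maximal Vhalf shift, with selectivity based on the shift at 30 μM.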

[2] = target: T2, heteromeric KV7.2/KV7.3 channels (KCNQ2, KCNQ3) (Homo sapiens, UniProt O43525+O43526); test: Automated patch-clamp (Sophion Qube 384) potency assay against KV7.2/KV7.3 channels; settings: CHO-K1/Kv7.2/Kv7.3 cells; for EC50: EC50 from concentration-response of shift in Vhalf, 10 concentrations up to 30 μM, read-out: Kv7.2/7.3 EC50; for Kv7.2/7.3 ΔV1/2: maximal shift in the Vhalf from the top of the curve
T2 construct: expressed in transfected cells; host or cells: CHO-K1
Outline: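 Whole-cell automated patch clamp on CHO-K1 cells stably expressing human KV7.2/KV7.3, held at −80 mV; I-V steps −100 to +20 mV (1 s) with 0 mV tail pulses, Boltzmann-fitted activation curves. Ten concentrations (1:3 from 30 μM, quadruplicate) versus 0.3% DMSO control; EC50 and maximal shift from 4-parameter fits of Vhalf shift.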

[3] = target: T3, homomeric KV7.4 channel (KCNQ4) (Homo sapiens, UniProt P56696); test: Automated patch-clamp (Qube) counter-screening assay against KV7.4 channel; settings: CHO-K1 cells expressing KV7.4; class by maximal shift in the Vhalf at 30 μM
T3 construct: host or cells: CHO-K1
Outline: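 CHO-K1 cells stably expressing homomeric human KV7.4 were recorded on the Qube automated patch clamp. Ten concentrations (1:3 dilutions from 30 μM) were tested in quadruplicate. The mean Vhalf shift was fitted with a 4-parameter logistic to give EC50 and maximal Vhalf shift, and selectivity was based on the shift at 30 μM.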

| Compound | Kv7.3/7.5 selectivity criteria [1] | EC50 [2] | Kv7.2/7.3 ΔV1/2 [2] | Kv7.4 selectivity criteria [3] |
| --- | --- | --- | --- | --- |
| C[C@H](Oc1cc(CNC(=O)NCCC2(C(F)(F)F)CC2)ncn1)C(F)(F)F [Compound 96] | A (Selective compounds showed Kv7.4 and/or Kv7.3/7.5 ΔV1/2 equal to or lower than 15 mV (letter A in table 3)) | 6610 nM | 25.66 mV | A (Selective compounds showed Kv7.4 and/or Kv7.3/7.5 ΔV1/2 equal to or lower than 15 mV (letter A in table 3)) |
| C[C@H](NC(=O)NCCC1(C(F)(F)F)CC1)c1ccnc(C(F)(F)F)c1 [Compound 97] | B (Non-selective compounds showed Kv7.4 and/or Kv7.3/7.5 ΔV1/2 higher than 15 mV (letter B in table 3)) | 2300 nM | 26.87 mV | B (Non-selective compounds showed Kv7.4 and/or Kv7.3/7.5 ΔV1/2 higher than 15 mV (letter B in table 3)) |
| C[C@H](Oc1nccc(CNC(=O)NCCC2(C(F)(F)F)CC2)n1)C(F)(F)F [Compound 98] | A (Selective compounds showed Kv7.4 and/or Kv7.3/7.5 ΔV1/2 equal to or lower than 15 mV (letter A in table 3)) | 5140 nM | 22.14 mV | A (Selective compounds showed Kv7.4 and/or Kv7.3/7.5 ΔV1/2 equal to or lower than 15 mV (letter A in table 3)) |
| O=C(N[C@@H](CO)c1ccnc(OCC(F)(F)F)c1)N[C@H]1CCc2ccc(F)cc21 [Compound 99] | B (Non-selective compounds showed Kv7.4 and/or Kv7.3/7.5 ΔV1/2 higher than 15 mV (letter B in table 3)) | 12800 nM | 29.92 mV | B (Non-selective compounds showed Kv7.4 and/or Kv7.3/7.5 ΔV1/2 higher than 15 mV (letter B in table 3)) |
| O=C(NCc1ccnc(C(F)(F)F)c1)NCC1CCCCC1 [Compound 100] | B (Non-selective compounds showed Kv7.4 and/or Kv7.3/7.5 ΔV1/2 higher than 15 mV (letter B in table 3)) | 3940 nM | 24.71 mV | A (Selective compounds showed Kv7.4 and/or Kv7.3/7.5 ΔV1/2 equal to or lower than 15 mV (letter A in table 3)) |
| O=C(N[C@@H](CO)c1ccnc(OCC(F)(F)F)c1)N[C@@H]1CCc2ccc(F)cc21 [Compound 101] | B (Non-selective compounds showed Kv7.4 and/or Kv7.3/7.5 ΔV1/2 higher than 15 mV (letter B in table 3)) | 2640 nM | 38.71 mV | B (Non-selective compounds showed Kv7.4 and/or Kv7.3/7.5 ΔV1/2 higher than 15 mV (letter B in table 3)) |
| O=C(NCc1ccnc(C(F)(F)F)c1)Nc1cc(F)cc(Cl)c1 [Compound 102] | B (Non-selective compounds showed Kv7.4 and/or Kv7.3/7.5 ΔV1/2 higher than 15 mV (letter B in table 3)) | 3830 nM | 35.23 mV | B (Non-selective compounds showed Kv7.4 and/or Kv7.3/7.5 ΔV1/2 higher than 15 mV (letter B in table 3)) |
| O=C(NCC1CCCCC1)N[C@@H](CO)c1ccnc(OCC(F)(F)F)c1 [Compound 103] | B (Non-selective compounds showed Kv7.4 and/or Kv7.3/7.5 ΔV1/2 higher than 15 mV (letter B in table 3)) | 1340 nM | 42.63 mV | A (Selective compounds showed Kv7.4 and/or Kv7.3/7.5 ΔV1/2 equal to or lower than 15 mV (letter A in table 3)) |
| CC(NC(=O)NCCC1(C(F)(F)F)CC1)c1ccnc(OCC(F)(F)F)n1 (stereo not shown) [Compound 104] | A (Selective compounds showed Kv7.4 and/or Kv7.3/7.5 ΔV1/2 equal to or lower than 15 mV (letter A in table 3)) | 3090 nM | 21.96 mV | A (Selective compounds showed Kv7.4 and/or Kv7.3/7.5 ΔV1/2 equal to or lower than 15 mV (letter A in table 3)) |
| C[C@H](NC(=O)NC[C@H](O)C(C)(C)C)c1ccnc(OCC(F)(F)C(F)(F)F)c1 [Compound 105] | A (Selective compounds showed Kv7.4 and/or Kv7.3/7.5 ΔV1/2 equal to or lower than 15 mV (letter A in table 3)) | 1500 nM | 35.29 mV | B (Non-selective compounds showed Kv7.4 and/or Kv7.3/7.5 ΔV1/2 higher than 15 mV (letter B in table 3)) |
| O=C(NCCC1(C(F)(F)F)CC1)N1CCC[C@H]1c1ccnc(OCC(F)(F)F)c1 [Compound 106] | A (Selective compounds showed Kv7.4 and/or Kv7.3/7.5 ΔV1/2 equal to or lower than 15 mV (letter A in table 3)) | 2840 nM | 28.47 mV | A (Selective compounds showed Kv7.4 and/or Kv7.3/7.5 ΔV1/2 equal to or lower than 15 mV (letter A in table 3)) |
| O=C(NCc1ccnc(OCC(F)(F)F)n1)NCC1CCCCC1 [Compound 107] | A (Selective compounds showed Kv7.4 and/or Kv7.3/7.5 ΔV1/2 equal to or lower than 15 mV (letter A in table 3)) | 3060 nM | 20.76 mV | A (Selective compounds showed Kv7.4 and/or Kv7.3/7.5 ΔV1/2 equal to or lower than 15 mV (letter A in table 3)) |
| O=C(NCC1CCC(F)(F)CC1)N[C@@H](CO)c1ccnc(OCC(F)(F)F)c1 [Compound 108] | A (Selective compounds showed Kv7.4 and/or Kv7.3/7.5 ΔV1/2 equal to or lower than 15 mV (letter A in table 3)) | 3180 nM | 26.46 mV | A (Selective compounds showed Kv7.4 and/or Kv7.3/7.5 ΔV1/2 equal to or lower than 15 mV (letter A in table 3)) |
| O=C(NCCC1(C(F)(F)F)CC1)NCc1ccnc(C(F)F)c1 [Compound 109] | A (Selective compounds showed Kv7.4 and/or Kv7.3/7.5 ΔV1/2 equal to or lower than 15 mV (letter A in table 3)) | 4790 nM | 16.81 mV | A (Selective compounds showed Kv7.4 and/or Kv7.3/7.5 ΔV1/2 equal to or lower than 15 mV (letter A in table 3)) |
| C[C@H](NC(=O)N[C@@H]1CCc2ccc(F)cc21)c1ccnc(OCC(F)(F)F)n1 [Compound 110] | B (Non-selective compounds showed Kv7.4 and/or Kv7.3/7.5 ΔV1/2 higher than 15 mV (letter B in table 3)) | 1920 nM | 28.73 mV | A (Selective compounds showed Kv7.4 and/or Kv7.3/7.5 ΔV1/2 equal to or lower than 15 mV (letter A in table 3)) |
| O=C(NCc1ccnc(OCC(F)F)c1)N[C@@H]1CCc2ccc(F)cc21 [Compound 111] | B (Non-selective compounds showed Kv7.4 and/or Kv7.3/7.5 ΔV1/2 higher than 15 mV (letter B in table 3)) | 2440 nM | 35.96 mV | A (Selective compounds showed Kv7.4 and/or Kv7.3/7.5 ΔV1/2 equal to or lower than 15 mV (letter A in table 3)) |
| O=C(NCCC1(C(F)(F)F)CC1)N[C@@H](CO)c1ccnc(OCC(F)(F)F)c1 [Compound 112] | A (Selective compounds showed Kv7.4 and/or Kv7.3/7.5 ΔV1/2 equal to or lower than 15 mV (letter A in table 3)) | 653 nM | 26.53 mV | A (Selective compounds showed Kv7.4 and/or Kv7.3/7.5 ΔV1/2 equal to or lower than 15 mV (letter A in table 3)) |
| O=C(NCc1ccnc(C(O)C(F)(F)F)c1)N[C@@H]1CCc2ccc(F)cc21 (stereo partly shown) [Compound 113] | B (Non-selective compounds showed Kv7.4 and/or Kv7.3/7.5 ΔV1/2 higher than 15 mV (letter B in table 3)) | 7640 nM | 27.22 mV | A (Selective compounds showed Kv7.4 and/or Kv7.3/7.5 ΔV1/2 equal to or lower than 15 mV (letter A in table 3)) |
| CC1(NC(=O)NCc2ccnc(OCC(F)(F)F)c2)Cc2ccccc2C1 [Compound 114] | B (Non-selective compounds showed Kv7.4 and/or Kv7.3/7.5 ΔV1/2 higher than 15 mV (letter B in table 3)) | 672 nM | 32.56 mV | A (Selective compounds showed Kv7.4 and/or Kv7.3/7.5 ΔV1/2 equal to or lower than 15 mV (letter A in table 3)) |
| O=C(NCc1ccnc(OCC(F)(F)F)c1)N[C@@H]1CCc2ccccc2C1 [Compound 115] | A (Selective compounds showed Kv7.4 and/or Kv7.3/7.5 ΔV1/2 equal to or lower than 15 mV (letter A in table 3)) | 479 nM | 21.89 mV | A (Selective compounds showed Kv7.4 and/or Kv7.3/7.5 ΔV1/2 equal to or lower than 15 mV (letter A in table 3)) |
| Cc1cccc2c1C(NC(=O)NCc1ccnc(OCC(F)(F)F)c1)CC2 (stereo not shown) [Compound 116] | B (Non-selective compounds showed Kv7.4 and/or Kv7.3/7.5 ΔV1/2 higher than 15 mV (letter B in table 3)) | 1590 nM | 31.15 mV | A (Selective compounds showed Kv7.4 and/or Kv7.3/7.5 ΔV1/2 equal to or lower than 15 mV (letter A in table 3)) |
| O=C(NCc1ccnc(OCC(F)(F)F)c1)NC1CCc2ccc(C(F)(F)F)cc21 (stereo not shown) [Compound 117] | A (Selective compounds showed Kv7.4 and/or Kv7.3/7.5 ΔV1/2 equal to or lower than 15 mV (letter A in table 3)) | 1900 nM | 20.5 mV | A (Selective compounds showed Kv7.4 and/or Kv7.3/7.5 ΔV1/2 equal to or lower than 15 mV (letter A in table 3)) |
